# In patent US20240270762A1, “PENICILLIN-BINDING PROTEIN INHIBITORS” (priority 2021, published 2024):
# Like-named read-outs stand apart in the source and are kept apart here.
# Assays:
# [1] = molecular target: T1, PBP1a from Acinetobacter baumannii (ATCC 19606) (Acinetobacter baumannii, UniProt A0ABX6CK30); assay: Bocillin-FL fluorescence polarization competition binding, A. baumannii PBP1a; settings: fluorescence polarization competition binding assay using Bocillin-FL; read-out: A. baumannii PBP1a Potency
# T1 sequence (A0ABX6CK30 1-851): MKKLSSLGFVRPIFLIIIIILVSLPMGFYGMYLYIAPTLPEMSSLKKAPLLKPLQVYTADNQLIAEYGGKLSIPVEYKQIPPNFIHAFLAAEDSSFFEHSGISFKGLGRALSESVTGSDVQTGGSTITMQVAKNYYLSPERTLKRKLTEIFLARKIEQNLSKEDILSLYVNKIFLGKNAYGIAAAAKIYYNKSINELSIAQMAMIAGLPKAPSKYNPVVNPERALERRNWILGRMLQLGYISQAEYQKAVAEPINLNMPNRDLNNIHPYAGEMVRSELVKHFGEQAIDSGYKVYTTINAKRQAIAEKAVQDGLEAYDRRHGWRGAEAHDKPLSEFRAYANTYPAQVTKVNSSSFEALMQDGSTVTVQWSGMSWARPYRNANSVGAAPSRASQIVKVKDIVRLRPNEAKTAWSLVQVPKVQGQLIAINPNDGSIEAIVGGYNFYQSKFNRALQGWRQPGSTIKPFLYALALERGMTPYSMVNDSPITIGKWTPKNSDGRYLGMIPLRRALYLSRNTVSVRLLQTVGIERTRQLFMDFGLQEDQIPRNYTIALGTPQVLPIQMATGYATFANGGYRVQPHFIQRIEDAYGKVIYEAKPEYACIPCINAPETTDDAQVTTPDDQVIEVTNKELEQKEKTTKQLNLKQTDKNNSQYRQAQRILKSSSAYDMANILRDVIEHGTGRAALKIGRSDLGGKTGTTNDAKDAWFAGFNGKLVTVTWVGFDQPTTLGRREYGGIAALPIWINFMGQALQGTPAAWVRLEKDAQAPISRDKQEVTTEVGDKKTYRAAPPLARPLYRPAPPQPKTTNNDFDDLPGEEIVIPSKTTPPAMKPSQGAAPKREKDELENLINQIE
# Method in brief: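 Purified PBP was preincubated with inhibitor (E. coli PBP3 1.5 μM, 30 min; P. aeruginosa PBP3 0.75 μM, A. baumannii PBP3 0.2 μM and PBP1a 1 μM, 15 min), then Bocillin-FL (0.1 μM; 0.05 μM for PBP1a) added and FP read up to 60 min. EC50 = 50% loss of bound probe.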
# N. gonorrhoeae WHO X = assay: Liquid broth MIC in Fastidious broth; settings: Neisseria gonorrhoeae
# A. baumannii CDC-0083 = assay: microbe, parasite or virus in culture; format: cell-based; settings: Acinetobacter baumannii, CDC0083, read-out: MIC, A. baumannii CDC-0083
# N. gonorrhoeae WHO Q = assay: Liquid broth MIC in Fastidious broth; settings: Neisseria gonorrhoeae
# [2] = test system: P. aeruginosa (ΔmexAB-oprM); assay: Broth microdilution MIC in iron-depleted CAMHB (IDM); format: cell-based; settings: Pseudomonas aeruginosa; iron-depleted CAMHB (IDM); […]; read-out: Minimum inhibitory concentration, P. aeruginosa ΔmexAB-oprM
# [3] = test system: N. gonorrhoeae ATCC 49226; assay: Liquid broth MIC in Fastidious broth; settings: Neisseria gonorrhoeae
# [4] = test system: B. thailandensis ATCC 700388; assay: microbe, parasite or virus in culture; format: cell-based; settings: Burkholderia thailandensis, ATCC700388, read-out: Minimum inhibitory concentration (MIC), B. thailandensis ATCC 700388
# P. aeruginosa ATCC 35151 = assay: microbe, parasite or virus in culture; format: cell-based; settings: Pseudomonas aeruginosa, ATCC35151, read-out: Minimum inhibitory concentration, P. aeruginosa ATCC 35151
# [5] = read-out: Minimum Inhibitory Concentration (MIC), N. gonorrhoeae WHO X
# [6] = read-out: Minimum Inhibitory Concentration (MIC), N. gonorrhoeae WHO Q
# [7] = ATCC49226, read-out: Minimum Inhibitory Concentration (MIC), N. gonorrhoeae ATCC 49226
# [8] = read-out: Minimum Inhibitory Concentration, WHO X
# [9] = read-out: Minimum Inhibitory Concentration, WHO Q
# [10] = ATCC49226, read-out: Minimum Inhibitory Concentration, ATCC 49226
SMILES,IC50 [1],MIC (N. gonorrhoeae WHO X; [5]),MIC (A. baumannii CDC-0083),MIC (N. gonorrhoeae WHO Q; [6]),MIC [2],"MIC [3, 7]",MIC [4],MIC (P. aeruginosa ATCC 35151),MIC (N. gonorrhoeae WHO X; [8]),MIC (N. gonorrhoeae WHO Q; [9]),"MIC [3, 10]"
"O=C(NCCN1CCN(C(=O)NC(C(=O)N[C@H]2Cc3ccc(F)c(C(=O)O)c3OB2O)c2cc(F)c(O)c(O)c2Cl)C1=O)c1ccncc1 (stereo partly drawn) [Example 245, (3R)-3-(2-(2-chloro-5-fluoro-3,4-dihydroxyphenyl)-2-(3-(2-(isonicotinamido)ethyl)-2-oxoimidazolidine-1-carboxamido)acetamido)-7-fluoro-2-hydroxy-3,4-dihydro-2H-benzo[e][1,2]oxaborinine-8-carboxylic acid]",> 250 µM,> 64 µg/mL,< 1 µg/mL,> 64 µg/mL,< 1 µg/mL,16 to 32 µg/mL,2 to 4 µg/mL,< 1 µg/mL,,,
"O=C(NCCCN1CCN(C(=O)NC(C(=O)N[C@H]2Cc3ccc(F)c(C(=O)O)c3OB2O)c2cc(F)c(O)c(O)c2Cl)C(=O)C1=O)c1ccccc1 (stereo partly drawn) [Example 202, (3R)-3-(2-(4-(3-benzamidopropyl)-2,3-dioxopiperazine-1-carboxamido)-2-(2-chloro-5-fluoro-3,4-dihydroxyphenyl)acetamido)-7-fluoro-2-hydroxy-3,4-dihydro-2H-benzo[e][1,2]oxaborinine-8-carboxylic acid]",> 250 µM,> 64 µg/mL,< 1 µg/mL,> 64 µg/mL,< 1 µg/mL,16 to 32 µg/mL,8 to 16 µg/mL,< 1 µg/mL,,,
"CN(CCN1CCN(C(=O)N[C@@H](C(=O)N[C@H]2Cc3ccc(F)c(C(=O)O)c3OB2O)c2cc(F)c(O)c(O)c2Cl)C(=O)C1=O)Cc1ccc(N)nc1 [Example 209, (R)-3-((R)-2-(4-(2-(((6-aminopyridin-3-yl)methyl)(methyl)amino)ethyl)-2,3-dioxopiperazine-1-carboxamido)-2-(2-chloro-5-fluoro-3,4-dihydroxyphenyl)acetamido)-7-fluoro-2-hydroxy-3,4-dihydro-2H-benzo[e][1,2]oxaborinine-8-carboxylic acid]",> 250 µM,> 64 µg/mL,< 1 µg/mL,16 to 32 µg/mL,< 1 µg/mL,4 to 8 µg/mL,< 1 µg/mL,< 1 µg/mL,,,
"O=C(O)c1c(F)ccc2c1OB(O)[C@@H](NC(=O)C(NC(=O)N1CCN(S(=O)(=O)CCCNC(=O)[C@@H]3CCCN3)C1=O)c1cc(F)c(O)c(O)c1Cl)C2 (stereo partly drawn) [Example 275, (3R)-3-(2-(2-chloro-5-fluoro-3,4-dihydroxyphenyl)-2-(2-oxo-3-((3-((S)-pyrrolidine-2-carboxamido)propyl)sulfonyl)imidazolidine-1-carboxamido)acetamido)-7-fluoro-2-hydroxy-3,4-dihydro-2H-benzo[e][1,2]oxaborinine-8-carboxylic acid]",> 250 µM,,2 to 4 µg/mL,,< 1 µg/mL,,< 1 µg/mL,< 1 µg/mL,> 64 µg/mL,16 to 32 µg/mL,16 to 32 µg/mL
"O=C(NCCCN1CCN(C(=O)N[C@@H](C(=O)N[C@H]2Cc3ccc(F)c(C(=O)O)c3OB2O)c2cc(F)c(O)c(O)c2Cl)C1=O)Nc1cccc(O)c1 [Example 258, (R)-3-((R)-2-(2-chloro-5-fluoro-3,4-dihydroxyphenyl)-2-(3-(3-(3-(3-hydroxyphenyl)ureido)propyl)-2-oxoimidazolidine-1-carboxamido)acetamido)-7-fluoro-2-hydroxy-3,4-dihydro-2H-benzo[e][1,2]oxaborinine-8-carboxylic acid]",> 250 µM,,< 1 µg/mL,,< 1 µg/mL,,< 1 µg/mL,< 1 µg/mL,> 64 µg/mL,16 to 32 µg/mL,4 to 8 µg/mL
